Reference: paper PMC3757248, “Antiestrogen-binding site ligands induce autophagy in myeloma cells that proceeds through alteration of cholesterol metabolism” (Oncotarget, 2013)
Read-outs that look alike come from different tables or passages of the source.

What was measured:
RPMI 8226 and LP-1 cells = assay: Cell viability, MTT assay; assay type: cell-based, human; details: for cell death (viable cells, MTT assay): 1 μM LY 294002, 10 nM everolimus, 10 μM RU 39411, 40 μM PBPE; for sensitivity to dexamethasone (MTT assay): 10 μM dexamethasone 24 h, RU 39411 10 μM for 2 h before
Procedure: RPMI 8226 were obtained from R Bataille (CLCC, Nantes, France) and LP-1 cells from D Bouscary (Institut Cochin, Paris, France). At their arrival, the identity of cells was checked by karyotyping and surface markers expression; cells were then amplified and frozen. HMCLs were maintained in RPMI 1640 medium (Lonza, Basel, Switzerland) supplemented with 2 mM L-glutamine (Lonza) and 10% FCS (fetal calf serum) (PAA Laboratories, Velizy-Villacoublay, France). In experiments with AEs, cells were cultured in phenol red-free medium plus FCS. AEs were dissolved in ethanol (EtOH) to obtain 10 mM stock solution and then diluted into medium immediately before use. For controls, vehicle was added at the same final concentration. Cell viability was determined using CellTiter 96® AQueous One Solution (MTT [([3]-([4],[5])-dimethylthiazol-[2]-yl)-[2],[5]-diphenyltetrazolium bromide] assay, Promega, Charbonnières, France) according to the supplier's instructions.

AEBS [1] = molecular target: T1, AEBS (Homo sapiens, UniProt Q15125+Q9UBM7); assay: Binding to the AEBS in RPMI 8226
T1 sequence (Q15125 whole entry): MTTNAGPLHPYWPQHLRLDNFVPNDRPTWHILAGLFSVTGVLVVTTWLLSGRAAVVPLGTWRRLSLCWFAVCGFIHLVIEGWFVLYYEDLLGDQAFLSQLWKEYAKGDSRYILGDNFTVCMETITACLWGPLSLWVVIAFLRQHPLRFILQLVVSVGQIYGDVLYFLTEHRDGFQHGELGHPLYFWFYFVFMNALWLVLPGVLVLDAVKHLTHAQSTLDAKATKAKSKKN
T1 sequence (Q9UBM7 whole entry): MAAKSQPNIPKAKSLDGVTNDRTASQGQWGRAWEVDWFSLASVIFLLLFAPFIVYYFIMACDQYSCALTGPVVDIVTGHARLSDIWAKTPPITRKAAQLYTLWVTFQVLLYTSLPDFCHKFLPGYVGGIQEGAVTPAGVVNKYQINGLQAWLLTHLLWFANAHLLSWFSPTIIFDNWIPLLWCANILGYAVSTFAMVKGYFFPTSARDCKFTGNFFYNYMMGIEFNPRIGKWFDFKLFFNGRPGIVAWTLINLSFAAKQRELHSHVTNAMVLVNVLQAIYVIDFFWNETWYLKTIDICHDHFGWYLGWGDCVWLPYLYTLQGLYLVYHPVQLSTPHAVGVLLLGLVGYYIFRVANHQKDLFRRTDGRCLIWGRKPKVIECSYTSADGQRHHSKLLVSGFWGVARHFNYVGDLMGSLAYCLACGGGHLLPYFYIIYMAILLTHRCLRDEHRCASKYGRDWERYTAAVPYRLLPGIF

LP-1 cells [2] = assay: Sterols accumulated in cells, HPLC and GC/MS; assay type: cell-based, human; details: LP1, 48 h incubation
Procedure: (§1) The organic layer was reduced to dryness under a flux of argon and the residue was resuspended in ethanol. Sterols were analyzed by liquid chromatography and gas-liquid chromatography as described before. Neutral lipids and sphingomyelin analyses were done according to previously published procedures.

RPMI 8226 cells [3] = assay: Sterols accumulated in cells, HPLC and GC/MS; assay type: cell-based, human; details: RPMI 8226, 48 h incubation
Procedure: as §1

RPMI 8226 cells [4] = assay: Electron microscopy for MLBs, AVs and UVs; assay type: cell-based, human; details: 48 h, 10 μM drug (PBPE 40 μM)
LP-1 cells [5] = assay: Electron microscopy for MLBs, AVs and UVs; assay type: cell-based, human; details: 48 h, 10 μM drug (PBPE 40 μM)
LP-1 cells [6] = assay: Presence of 5,6-EC in cells by GC/MS; assay type: cell-based, human; details: 48 h, 10 μM drug (PBPE 40 μM)
Procedure: as §1

RPMI 8226 cells [7] = assay: Presence of 5,6-EC in cells by GC/MS; assay type: cell-based, human; details: 48 h, 10 μM drug (PBPE 40 μM)
Procedure: as §1

HMCLs = assay: Free sterol accumulation in HMCLs; assay type: cell-based, human
Procedure: as §1

AEBS [8] = molecular target: T1, AEBS; assay: Binding to the AEBS in LP1; set-up: endogenous in cells; host or cells: LP-1 human multiple myeloma cell lines
ChEH [9] = molecular target: T2, ChEH (Homo sapiens, UniProt Q15125+Q9UBM7); assay: ChEH activity measured on intact cells; assay type: cell-based; set-up: endogenous in cells; host or cells: LP-1 human multiple myeloma cell lines; details: LP-1 intact cells, [14C]-5,6-EC 0.6 μM, drugs 1 nM to 10 μM over 24 h; read-out: ChEH IC50
T2 sequence (Q15125 whole entry): as the sequence (Q15125 whole entry) above
T2 sequence (Q9UBM7 whole entry): as the sequence (Q9UBM7 whole entry) above
Text: (§2) Cells were then pelleted and extracted with chloroform/methanol (2/1). The organic layer was reduced to dryness under a flux of argon and the residue was resuspended in EtOH. Samples were applied to thin layer chromatography (TLC) plates and developed using ethyl acetate as previously described. The radioactive metabolites were visualized by autoradiography using Kodak Biomax MS films.

ChEH [10] = molecular target: T2, ChEH; assay: ChEH activity measured on intact cells; assay type: cell-based; set-up: endogenous in cells; host or cells: RPMI 8226 human multiple myeloma cell lines; details: RPMI 8226 intact cells, [14C]-5,6-EC 0.6 μM, drugs 1 nM to 10 μM over 24 h; read-out: ChEH IC50
Text: as §2

AEBS [11] = molecular target: T1, AEBS; assay: Binding to the AEBS in HMCLs; set-up: endogenous in cells; host or cells: RPMI 8226 and LP-1 human multiple myeloma cell lines
LP-1 = test system: LP-1; set-up: method as in earlier work; details: cited from earlier work
NCI-H929 = test system: NCI-H929; set-up: method as in earlier work; details: cited from earlier work
OPM-2 = test system: OPM-2; set-up: method as in earlier work; details: cited from earlier work
RPMI 8226 = test system: RPMI 8226; set-up: method as in earlier work; details: cited from earlier work
ChEH [12] = molecular target: T2, ChEH; assay: ChEH activity in HMCLs (TLC); assay type: cell-based; set-up: endogenous in cells; host or cells: RPMI 8226 and LP-1 human multiple myeloma cell lines; details: OHT, Tam, RU 58668 10 μM, PBPE 40 μM
Text: as §2

[13] = RPMI 8226, presence of 500 μM Vit E

Row | SMILES | cell death (viable cells, MTT assay) (RPMI 8226 and LP-1 cells) | Desmosterol (LP-1 cells [2]) | Zymostenol (LP-1 cells [2]) | Desmosterol (RPMI 8226 cells [3]) | Zymostenol (RPMI 8226 cells [3]) | AV (RPMI 8226 cells [4]; RPMI 8226, absence of Vit E) | MLB (RPMI 8226 cells [4]; RPMI 8226, absence of Vit E) | UV (RPMI 8226 cells [4]; RPMI 8226, absence of Vit E) | AV (RPMI 8226 cells [4]; [13]) | MLB (RPMI 8226 cells [4]; [13]) | UV (RPMI 8226 cells [4]; [13]) | AV (LP-1 cells [5]; LP-1, absence of Vit E) | MLB (LP-1 cells [5]; LP-1, absence of Vit E) | UV (LP-1 cells [5]; LP-1, absence of Vit E) | AV (LP-1 cells [5]; LP-1, presence of 500 μM Vit E) | MLB (LP-1 cells [5]; LP-1, presence of 500 μM Vit E) | UV (LP-1 cells [5]; LP-1, presence of 500 μM Vit E) | 5,6-EC (LP-1 cells [6]; LP-1, absence of Vit E) | 5,6-EC (LP-1 cells [6]; LP-1, presence of 500 μM Vit E) | 5,6-EC (RPMI 8226 cells [7]; RPMI 8226, absence of Vit E) | other results
1 | O=c1cc(N2CCOCC2)oc2c(-c3ccccc3)cccc12 [LY 294002] | induced cell death |  |  |  |  |  |  |  |  |  |  |  |  |  |  |  |  |  |  |  | 
2 | CO[C@H]1C[C@@H]2CC[C@@H](C)[C@@](O)(O2)C(=O)C(=O)N2CCCC[C@H]2C(=O)O[C@H]([C@H](C)C[C@@H]2CC[C@@H](OCCO)[C@H](OC)C2)CC(=O)[C@H](C)/C=C(\C)[C@@H](O)[C@@H](OC)C(=O)[C@H](C)C[C@H](C)/C=C/C=C/C=C/1C [everolimus] | induced cell death |  |  |  |  |  |  |  |  |  |  |  |  |  |  |  |  |  |  |  | 
3 | CN(C)CCOc1ccc([C@H]2C[C@]3(C)[C@@H](O)CC[C@H]3[C@@H]3CCc4cc(O)ccc4[C@H]32)cc1 [RU 39411, 11β-(4-(2-(dimethylamino)-ethoxy)-phenyl)estra-1,3,5(10)-triene-3,17β-diol] | cell death that was strictly caspase-independent | 46.4 percent by the weight of total sterol | 1.7 percent by the weight of total sterol | 41.5 percent by the weight of total sterol | 1.8 percent by the weight of total sterol | + + (The sign + means that 80 % cells were positive and contained at least 5 vesicles) | + + (The sign + means that 80 % cells were positive and contained at least 5 vesicles) | + (The sign + means that 80 % cells were positive and contained at least 5 vesicles) | + + (The sign + means that 80 % cells were positive and contained at least 5 vesicles) | + + (The sign + means that 80 % cells were positive and contained at least 5 vesicles) | − (otherwise they were considered as negative (-)) | + + (The sign + means that 80 % cells were positive and contained at least 5 vesicles) | + + (The sign + means that 80 % cells were positive and contained at least 5 vesicles) | + (The sign + means that 80 % cells were positive and contained at least 5 vesicles) | + + (The sign + means that 80 % cells were positive and contained at least 5 vesicles) | + + (The sign + means that 80 % cells were positive and contained at least 5 vesicles) | − (otherwise they were considered as negative (-)) | + | − | + | Ki (AEBS [1]): 0.0294 ± 0.0055 µM; 5,6-EC (RPMI 8226 cells [7]; [13]): −; free sterol accumulated (HMCLs): accumulation of desmosterol; sensitivity to dexamethasone (MTT assay) (RPMI 8226 and LP-1 cells): restores the sensitivity; Ki (AEBS [8]): 0.0274 ± 0.0031 µM; IC50 (ChEH [9]): 0.727 ± 0.031 µM; IC50 (ChEH [10]): 0.632 ± 0.022 µM; affinity for the AEBS (AEBS [11]): high affinity
4 | C[C@@H]1C[C@H]2[C@@H]3CCC4=CC(=O)C=C[C@]4(C)[C@@]3(F)[C@@H](O)C[C@]2(C)[C@@]1(O)C(=O)CO [dexamethasone] |  |  |  |  |  |  |  |  |  |  |  |  |  |  |  |  |  |  |  |  | sensitivity to dexamethasone (MTT assay) (RPMI 8226 and LP-1 cells): resistant
5 | C[C@]12CC[C@@H]3c4ccc(O)cc4C[C@@H](CCCCCCCCC[S+]([O-])CCCC(F)(F)C(F)(F)F)[C@H]3[C@@H]1CC[C@@H]2O (stereo partly shown) [Fulvestrant] |  |  |  |  |  |  |  |  |  |  |  |  |  |  |  |  |  |  |  |  | SERM and SERDs effects on MM cell lines (LP-1): G1-arrest; SERM and SERDs effects on MM cell lines (NCI-H929): Apoptosis; SERM and SERDs effects on MM cell lines (OPM-2): G1-arrest; SERM and SERDs effects on MM cell lines (RPMI 8226): Apoptosis
6 | CC/C(=C(\c1ccccc1)c1ccc(OCCN(C)C)cc1)c1ccccc1 [Tam, Tamoxifen] |  | 0.2 percent by the weight of total sterol | 38.2 percent by the weight of total sterol | 0.2 percent by the weight of total sterol | 35.9 percent by the weight of total sterol | + + (The sign + means that 80 % cells were positive and contained at least 5 vesicles) | + + (The sign + means that 80 % cells were positive and contained at least 5 vesicles) | + (The sign + means that 80 % cells were positive and contained at least 5 vesicles) | + + (The sign + means that 80 % cells were positive and contained at least 5 vesicles) | + + (The sign + means that 80 % cells were positive and contained at least 5 vesicles) | − (otherwise they were considered as negative (-)) | + + (The sign + means that 80 % cells were positive and contained at least 5 vesicles) | + + (The sign + means that 80 % cells were positive and contained at least 5 vesicles) | + (The sign + means that 80 % cells were positive and contained at least 5 vesicles) | + + (The sign + means that 80 % cells were positive and contained at least 5 vesicles) | + + (The sign + means that 80 % cells were positive and contained at least 5 vesicles) | − (otherwise they were considered as negative (-)) | + | − | + | 5,6-EC (RPMI 8226 cells [7]; [13]): −; free sterol accumulated (HMCLs): accumulation zymostenol; affinity for the AEBS (AEBS [11]): high affinity; ChEH activity, conversion of 5,6-EC into CT by TLC (ChEH [12]): ChEH activity was inhibited
